Test results from EP4610269A1, “UROKINASE PLASMINOGEN ACTIVATOR SURFACE RECEPTOR (UPAR) LIGANDS FOR DIAGNOSTIC OR THERAPEUTIC USE” (3B Pharmaceuticals GmbH, priority 2024, dated 2025).
pIC50: −log10 of the molar value. *1 amine or outer side, *2 acyl side, *3 side chain or, on linkers, in order; H or OH if unused. Where a SMILES comes first, the peptide text is derived from it. Bridges are numbered along the chain shown (N, C = ends). [ ]: non-standard residue; d: D form. The star is where a group is joined. DOTA = O=C(O)CN1CCN(CC(=O)O)CCN(CC(=O)*)CCN(CC(=O)O)CC1; Phe(4-NO2) = N[C@@H](Cc1ccc([N+](=O)[O-])cc1)C(=O)O; 2Nal = N[C@@H](Cc1ccc2ccccc2c1)C(=O)O; Bta = N[C@@H](Cc1csc2ccccc12)C(=O)O; Ser(ΨH,HPro) = O=C(O)[C@@H]1COCN1; Hyp = O=C(O)[C@@H]1C[C@@H](O)CN1; Pentanoyl(4-Me) = CC(C)CCC(=O)*; X1 = O=C(CN1CCN([*:1])CC1)[*:2]; Cha = N[C@@H](CC1CCCCC1)C(=O)O; Cit = NC(=O)NCCC[C@H](N)C(=O)O; NMeOrn = CN[C@@H](CCCN)C(=O)O; Propanoyl(3-OH) = O=C(CCO)*; dNle = CCCC[C@@H](N)C(=O)O; NMeS = CN[C@@H](CO)C(=O)O; Ac6c = NC1(C(=O)O)CCCCC1; Nle = CCCC[C@H](N)C(=O)O; Nva = CCC[C@H](N)C(=O)O; Pentanoyl = CCCCC(=O)*; Aib = CC(C)(N)C(=O)O; X2 = CCCOC(=O)*

Key:
[1] = target: T1, uPAR-expressing HEC-265 human endometrial adenocarcinoma cells (Homo sapiens, UniProt Q03405); assay: Competitive FACS binding assay; conditions: pIC50 category of FACS binding
T1 construct: Cell surface uPAR-expressing HEC-265 human endometrial adenocarcinoma cells; host or cells: HEC-265
T1 sequence (Q03405 23-335): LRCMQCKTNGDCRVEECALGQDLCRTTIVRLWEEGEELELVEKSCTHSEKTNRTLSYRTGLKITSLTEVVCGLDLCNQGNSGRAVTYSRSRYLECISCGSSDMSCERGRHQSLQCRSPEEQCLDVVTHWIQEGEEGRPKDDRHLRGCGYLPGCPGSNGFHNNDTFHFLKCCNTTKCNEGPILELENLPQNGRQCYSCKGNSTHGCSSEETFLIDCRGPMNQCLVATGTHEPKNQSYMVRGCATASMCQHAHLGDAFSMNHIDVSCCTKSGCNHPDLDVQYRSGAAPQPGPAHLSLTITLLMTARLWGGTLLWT
Procedure, shortened: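 Competitive displacement of a 10 nM biotinylated peptide from HEC-265 cells (1 h, 4 °C, PBS/1% BSA), detected via APC-streptavidin by flow cytometry. pIC50 from four-parameter logistic fit of median fluorescence versus concentration.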

[2] = target: T2, human uPAR (uPAR-Fc) (Homo sapiens, UniProt Q03405); assay: Surface plasmon resonance (SPR) assay, single cycle kinetics; format: binding; conditions: pKD category for uPAR SPR activity assay; uPAR-Fc on Protein A-Chip, 25°C; read-out: pKD CAT (converted)
T2 construct: comprising amino acids Leu23-Arg303 according to UniProt entry Q03405.1; purchased R&D Systems 10378-UK-100
T2 sequence (Q03405 23-303): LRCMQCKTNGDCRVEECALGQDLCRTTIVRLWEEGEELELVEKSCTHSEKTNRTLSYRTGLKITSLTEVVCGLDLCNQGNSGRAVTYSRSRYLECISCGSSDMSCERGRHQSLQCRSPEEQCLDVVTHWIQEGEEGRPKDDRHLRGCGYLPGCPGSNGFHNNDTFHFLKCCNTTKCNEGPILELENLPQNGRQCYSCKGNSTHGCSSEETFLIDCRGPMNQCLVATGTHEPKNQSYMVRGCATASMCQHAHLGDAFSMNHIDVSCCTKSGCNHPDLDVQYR
Procedure, shortened: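 uPAR-Fc (Leu23-Arg303 extracellular domains, human IgG1 Fc) captured on Protein A chip to ~2000 RU; single-cycle kinetics at 25°C in HEPES running buffer pH 7.4 with 0.1% DMSO. KD from double-referenced sensorgrams fitted to 1:1 Langmuir model, reported as pKD.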

| Structure (SMILES) | pIC50 [1] | Kd [2] |
| --- | --- | --- |
| CC[C@H](C)[C@@H]1NC(=O)[C@@H](C)NC(=O)[C@@H]2CCCN2C(=O)[C@H](Cc2ccccc2)NC(=O)[C@H](Cc2ccc(O)cc2)NC(=O)[C@H](CCCCNC(=O)CN2CCN(CC(=O)O)CCN(CC(=O)O)CCN(CC(=O)O)CC2)NC(=O)[C@H](CCCNC(N)=O)NC(=O)[C@@H](NC(=O)CCC(C)C)CSSC[C@@H](C(N)=O)NC(=O)[C@H](CC(C)C)NC1=O [UPAR-256, iHex-[Cys-Cit-Lys(DOTA)-Tyr-Phe-Pro-ala-Ile-Leu-Cys]-NH2] ({Pentanoyl(4-Me)}-C[Cit]K(DOTA)YFP[dA]ILC-NH2; disulfide 1-10) | ≥ 8.00 | < 0.00158 µM |
| CCCCC(=O)N[C@H]1CSSC[C@@H](C(N)=O)NC(=O)[C@H](CCC)NC(=O)[C@H]([C@@H](C)CC)NC(=O)[C@@H]2C[C@@H](O)CN2C(=O)[C@@H]2CCCN2C(=O)[C@H](Cc2ccccc2)NC(=O)[C@H](Cc2ccc([N+](=O)[O-])cc2)NC(=O)[C@H](CCCCNC(=O)CN2CCN(CC(=O)O)CCN(CC(=O)O)CCN(CC(=O)O)CC2)NC(=O)[C@H](CCCNC(N)=O)NC1=O [UPAR-257, Pent-[Cys-Cit-Lys(DOTA)-Nif-Phe-Pro-Hyp-Ile-Nva-Cys]-NH2] (Pentanoyl-C[Cit]K(DOTA)[Phe(4-NO2)]FP[Hyp]I[Nva]C-NH2; disulfide 1-10) | ≥ 8.00 | < 0.00158 µM |
| CCCCC(=O)N[C@H]1CSSC[C@@H](C(N)=O)NC(=O)[C@H](CCC)NC(=O)[C@H]([C@@H](C)CC)NC(=O)[C@@H]2C[C@@H](O)CN2C(=O)[C@@H]2CCCN2C(=O)[C@H](Cc2ccccc2)NC(=O)[C@H](Cc2ccc3ccccc3c2)NC(=O)[C@H](CCC(N)=O)NC(=O)[C@H](CCCNC(=N)N)NC1=O [UPAR-259, Pent-[Cys-Arg-Gln-2Ni-Phe-Pro-Hyp-Ile-Nva-Cys]-NH2] (Pentanoyl-CRQ[2Nal]FP[Hyp]I[Nva]C-NH2; disulfide 1-10) | ≥ 8.00 | < 0.00158 µM |
| CC[C@H](C)[C@@H]1NC(=O)[C@@H]2COCN2C(=O)[C@@H]2CCCN2C(=O)[C@H](Cc2ccccc2)NC(=O)[C@H](Cc2ccc(O)cc2)NC(=O)[C@H](CCC(N)=O)NC(=O)[C@H](CCCNC(N)=O)NC(=O)[C@@H](NC(=O)CCC(C)C)CSSC[C@@H](C(N)=O)NC(=O)[C@H](CC(C)C)NC1=O [UPAR-262, iHex-[Cys-Cit-Gln-Tyr-Phe-Pro-Oxa-Ile-Leu-Cys]-NH2] ({Pentanoyl(4-Me)}-C[Cit]QYFP[Ser(ΨH,HPro)]ILC-NH2; disulfide 1-10) | ≥ 8.00 | < 0.00158 µM |
| CC[C@H](C)[C@@H]1NC(=O)[C@@H](C)NC(=O)[C@@H]2CCCN2C(=O)[C@H](C)NC(=O)[C@H](Cc2ccc(O)cc2)NC(=O)[C@H](CCC(N)=O)NC(=O)[C@H](CCCNC(N)=O)NC(=O)[C@@H](NC(=O)CCC(C)C)CSSC[C@@H](C(N)=O)NC(=O)[C@H](CC(C)C)NC1=O [UPAR-263, iHex-[Cys-Cit-Gln-Tyr-Ala-Pro-ala-Ile-Leu-Cys]-NH2] ({Pentanoyl(4-Me)}-C[Cit]QYAP[dA]ILC-NH2; disulfide 1-10) | ≤ 6.90 | > 0.1 µM |
| CCCCC(=O)N[C@H]1CSSC[C@@H](C(N)=O)NC(=O)[C@H](CCC)NC(=O)C2(CCCCC2)NC(=O)[C@@H]2C[C@@H](O)CN2C(=O)[C@@H]2CCCN2C(=O)[C@H](Cc2ccccc2)NC(=O)[C@H](Cc2ccc(O)cc2)NC(=O)[C@H](CCC(N)=O)NC(=O)[C@H](CCCNC(=N)N)NC1=O [UPAR-264, Pent-[Cys-Arg-Gln-Tyr-Phe-Pro-Hyp-Egz-Nva-Cys]-NH2] (Pentanoyl-CRQYFP[Hyp][Ac6c][Nva]C-NH2; disulfide 1-10) | ≥ 8.00 | < 0.00158 µM |
| CCCCC(=O)N[C@H]1CSSC[C@@H](C(N)=O)NC(=O)[C@H](CCC)NC(=O)[C@H]([C@@H](C)CC)NC(=O)[C@H](CCCN)N(C)C(=O)[C@@H]2CCCN2C(=O)[C@H](Cc2ccccc2)NC(=O)[C@H](Cc2ccc(O)cc2)NC(=O)[C@H](CCCCNC(=O)CN2CCN(CC(=O)O)CCN(CC(=O)O)CCN(CC(=O)O)CC2)NC(=O)[C@H](CCCNC(N)=O)NC1=O [UPAR-265, Pent-[Cys-Cit-Lys(DOTA)-Tyr-Phe-Pro-Nmo-Ile-Nva-Cys]-NH2] (Pentanoyl-C[Cit]K(DOTA)YFP[NMeOrn]I[Nva]C-NH2; disulfide 1-10) | 7.00 to 7.40 | > 0.1 µM |
| CCCCC(=O)N[C@H]1CSSC[C@@H](C(N)=O)NC(=O)[C@H](CCC)NC(=O)[C@H]([C@@H](C)CC)NC(=O)[C@@H]2C[C@@H](O)CN2C(=O)[C@H](CC2CCCCC2)NC(=O)[C@H](Cc2ccccc2)NC(=O)[C@H](Cc2ccc(O)cc2)NC(=O)[C@H](CCC(N)=O)NC(=O)[C@H](CCCNC(=N)N)NC1=O [UPAR-266, Pent-[Cys-Arg-Gln-Tyr-Phe-Cha-Hyp-Ile-Nva-Cys]-NH2] (Pentanoyl-CRQYF[Cha][Hyp]I[Nva]C-NH2; disulfide 1-10) | ≥ 8.00 | < 0.00158 µM |
| CCCOC(=O)N[C@H]1CSSC[C@@H](C(N)=O)NC(=O)[C@H](CCC)NC(=O)[C@H]([C@@H](C)CC)NC(=O)[C@@H]2C[C@@H](O)CN2C(=O)[C@@H]2CCCN2C(=O)[C@H](Cc2ccccc2)NC(=O)[C@H](Cc2ccc(O)cc2)NC(=O)[C@H](CCCCNC(=O)CN2CCN(CC(=O)O)CCN(CC(=O)O)CCN(CC(=O)O)CC2)NC(=O)[C@H](CCCNC(N)=O)NC1=O [UPAR-267, Prpoc-[Cys-Cit-Lys(DOTA)-Tyr-Phe-Pro-Hyp-Ile-Nva-Cys]-NH2] (X2-C[Cit]K(DOTA)YFP[Hyp]I[Nva]C-NH2; disulfide 1-10) | 7.00 to 7.40 | 0.01 to 0.1 µM |
| CC[C@H](C)[C@@H]1NC(=O)[C@@H](C)NC(=O)[C@@H]2CCCN2C(=O)[C@H](Cc2ccccc2)NC(=O)[C@H](Cc2ccc(O)cc2)NC(=O)C(C)(C)NC(=O)[C@H](CCCNC(N)=O)NC(=O)[C@@H](NC(=O)CCC(C)C)CSSC[C@@H](C(N)=O)NC(=O)[C@H](CC(C)C)NC1=O [UPAR-269, iHex-[Cys-Cit-Aib-Tyr-Phe-Pro-ala-Ile-Leu-Cys]-NH2] ({Pentanoyl(4-Me)}-C[Cit][Aib]YFP[dA]ILC-NH2; disulfide 1-10) | 7.50 to 7.90 | 0.00158 to 0.01 µM |
| CCCC[C@@H]1NC(=O)[C@H](CCCNC(=N)N)NC(=O)[C@@H](NC(=O)[C@H](CC(C)C)NC(=O)[C@H](CC(=O)O)NC(C)=O)CSSC[C@@H](C(N)=O)NC(=O)[C@H](CC(C)C)NC(=O)[C@H]([C@@H](C)CC)NC(=O)[C@H](C)NC(=O)[C@@H]2CCCN2C(=O)[C@H](Cc2ccccc2)NC(=O)[C@H](Cc2ccc(O)cc2)NC1=O [UPAR-270, Ac-Asp-Leu-[Cys-Arg-Nle-Tyr-Phe-Pro-Ala-Ile-Leu-Cys]-NH2] (Ac-DLCR[Nle]YFPAILC-NH2; disulfide 3-12) | ≥ 8.00 | < 0.00158 µM |
| CCCCC(=O)N[C@H]1CSSC[C@@H](C(N)=O)NC(=O)[C@H](CCC)NC(=O)[C@H]([C@@H](C)CC)NC(=O)CN2CCN(CC2)C(=O)[C@H](Cc2ccccc2)NC(=O)[C@H](Cc2ccc(O)cc2)NC(=O)[C@H](CCC(N)=O)NC(=O)[C@H](CCCNC(=N)N)NC1=O [UPAR-271, Pent-[Cys-Arg-Gln-Tyr-Phe-PPAc-Ile-Nva-Cys]-NH2] (Pentanoyl-CRQYF[X1]I[Nva]C-NH2; disulfide 1-9) | ≤ 6.90 | > 0.1 µM |
| CC[C@H](C)[C@@H]1NC(=O)[C@@H](C)NC(=O)[C@@H]2CCCN2C(=O)[C@H](Cc2ccccc2)NC(=O)[C@H](Cc2ccc(O)cc2)NC(=O)[C@H](CCC(N)=O)NC(=O)[C@H](CCCNC(N)=O)NC(=O)[C@@H](NC(=O)CCO)CSSC[C@@H](C(N)=O)NC(=O)[C@H](CC(C)C)NC1=O [UPAR-272, HPA-[Cys-Cit-Gln-Tyr-Phe-Pro-ala-Ile-Leu-Cys]-NH2] ({Propanoyl(3-OH)}-C[Cit]QYFP[dA]ILC-NH2; disulfide 1-10) | 7.00 to 7.40 | > 0.1 µM |
| CCCCC(=O)N[C@H]1CSSC[C@@H](C(N)=O)NC(=O)[C@H](CCC)NC(=O)[C@H]([C@@H](C)CC)NC(=O)[C@@H]2C[C@@H](O)CN2C(=O)[C@@H]2CCCN2C(=O)[C@H](Cc2csc3ccccc23)NC(=O)[C@H](Cc2ccc(O)cc2)NC(=O)[C@H](CCC(N)=O)NC(=O)[C@H](CCCNC(=N)N)NC1=O [UPAR-273, Pent-[Cys-Arg-Gln-Tyr-Bta-Pro-Hyp-Ile-Nva-Cys]-NH2] (Pentanoyl-CRQY[Bta]P[Hyp]I[Nva]C-NH2; disulfide 1-10) | ≥ 8.00 | < 0.00158 µM |
| CCCC[C@H]1NC(=O)[C@H](CCCNC(=N)N)NC(=O)[C@@H](NC(=O)[C@H](CC(C)C)NC(=O)[C@H](CC(=O)O)NC(C)=O)CSSC[C@@H](C(N)=O)NC(=O)[C@H](CC(C)C)NC(=O)[C@H]([C@@H](C)CC)NC(=O)[C@H](C)NC(=O)[C@@H]2CCCN2C(=O)[C@H](Cc2ccccc2)NC(=O)[C@H](Cc2ccc(O)cc2)NC1=O [UPAR-274, Ac-Asp-Leu-[Cys-Arg-nle-Tyr-Phe-Pro-Ala-Ile-Leu-Cys]-NH2] (Ac-DLCR[dNle]YFPAILC-NH2; disulfide 3-12) | 7.50 to 7.90 | 0.00158 to 0.01 µM |
| CCCCC(=O)N[C@H]1CSSC[C@@H](C(N)=O)NC(=O)[C@H](CCC)NC(=O)[C@H]([C@@H](C)CC)NC(=O)[C@H](CO)N(C)C(=O)[C@@H]2CCCN2C(=O)[C@H](Cc2ccccc2)NC(=O)[C@H](Cc2ccc(O)cc2)NC(=O)[C@H](CCCCNC(=O)CN2CCN(CC(=O)O)CCN(CC(=O)O)CCN(CC(=O)O)CC2)NC(=O)[C@H](CCCNC(N)=O)NC1=O [UPAR-277, Pent-[Cys-Cit-Lys(DOTA)-Tyr-Phe-Pro-Nms-Ile-Nva-Cys]-NH2] (Pentanoyl-C[Cit]K(DOTA)YFP[NMeS]I[Nva]C-NH2; disulfide 1-10) | 7.00 to 7.40 | 0.01 to 0.1 µM |
